# Assay results: patent US10278940B2, “Use of 2,5-dihydroxybenzene compounds and derivatives for the treatment of skin cancer” (AmDerma Pharmaceuticals, LLC, priority 2006, dated 2019)
# Assays:
# [1] = target: T1, Fibroblast Growth Factor-1 (FGF-1) (Homo sapiens, UniProt P05230); experiment: Mitogenesis induced by FGF-1 in quiescent Balb/c 3T3 fibroblast cultures; format: cell-based
# T1 construct: host or cells: added to Balb/c 3T3 fibroblast cultures
# Procedure: The evaluated compounds were used in the form of potassium salt, except in the first case which used calcium salt. The experiments were carried out as described in Femandez-Tomero C et al. J Bioi Chern, 2003.
# [2] = test system: subcutaneous gliomas (rat C6 glioma cells); experiment: Progression of established subcutaneous C6 gliomas in rats; format: in vivo
# Procedure: Rat C6 glioma cells were cultured as previously described (Cuevas P et al. Neural Res, 2005). The C6 cells cultured to confluence in 75 cm^2 flasks were removed and implanted under the abdominal skin in anesthetized rats. The existence of a tumor in the implantation area was observed five days after the implantation of the tumor cells. Only the rats in which the existence of a tumor was observed were randomly assigned to be treated with daily intraperitoneal injections of 2,5-dihydroxybenzene sulfonate (DHBS; 100 mg/kg/day), 2,5-diacetoxybenzene sulfonate (DABS; 100 mg/kg/day) or the carrier (0.9% NaCl). After 10 days of treatment, the subcutaneous gliomas were removed and their volume was calculated according to the formula V=4/3π.(L/2).(A/2)^2 (in mm^3) where L is the larger diameter and A is the smaller diameter, both expressed in mm.
# [3] = test system: rat glioma C6 cells; experiment: Rat glioma C6 cell proliferation, crystal violet staining; format: cell-based; details: 48 h; for rat glioma cell proliferation (absorbance at 595 nm, % of control): 500 μM; for C6 cell proliferation: relative to control
# Procedure: The cell line used was rat glioma C6 cells. The cells were cultured as previously described (Cuevas P et al. Neural Res, 2005). The cells were cultured as adherent cells in Dulbecco's modified Eagle's medium, supplemented with 7.5% (v/v) of fetal bovine serum, 10 μg/ml of streptomycin and 10 units/ml of penicillin. The tumor cells were seeded in 24-well plates at a density of 10,000 cells/well, and were incubated at 37° C. in a humidified chamber with 5% CO2. Once adhered, the cells were treated or not (controls) with 2,5-dihydroxybenzoate at 100, 200, 500 or 1000 µM and they were allowed to proliferate for 48 h. After this time the glioma cell proliferation was evaluated by means of staining the fixed cells with crystal violet. The number of cells is proportional to the amount of retained dye, which was spectrophotometrically determined by measuring the absorbance at 595 nm once the dye was extracted from the cells.
# The cell line used was the C6 cell line and the experiment was carried out as described in Example 2. Once adhered, the cells were treated or not (controls) with increasing concentrations of 2,5-DHC (10, 25, 50 and 100 μM) and they were allowed to proliferate for 48 h. After this time the glioma cell proliferation was evaluated by means of staining the fixed cells with crystal violet. The number of cells is proportional to the amount of retained dye, which was determined spectrophotometrically by measuring absorbance at 595 nm once the dye was extracted from the cells.
# The cell line used was the C6 cell line and the experiment was carried out as described in examples 2 and 3. Once adhered, the cells were treated or not (controls) with (5A-2HBS) (500 μM) or (2A-5HBS) (500 μM) and they were allowed to proliferate for 48 h. After this time the glioma cell proliferation was evaluated by means of staining the fixed cells with crystal violet. The number of cells is proportional to the amount of retained dye, which was determined spectrophotometrically by measuring the absorbance at 595 nm once the dye was extracted from the cells.
# [4] = target: T1, Fibroblast Growth Factor-1 (FGF-1); experiment: Crystal diffraction of FGF-1:compound complexes; details: electron density contoured at 1σ; acetoxyl groups conserved on binding
# Procedure: Based on the crystal diffraction of the FGF-1:2-acetoxy-5-hydroxybenzene sulfonic acid, FGF-1:5-acetoxy-2-hydroxybenzene sulfonic acid and FGF-1:2,5-diacetoxybenzene sulfonic acid complexes, the structures of the complexes were calculated and represented. FIGS. 13, 14 and 15, which show the surface of the dyed protein according to its electrostatic potential (light grey, negative charge; dark grey, positive charge; white, regions with no charge), show the manner in which 2-acetoxy-5-hydroxybenzene sulfonic acid, 5-acetoxy-2-hydroxybenzene sulfonic acid and 2,5-diacetoxybenzene sulfonic acid interact, respectively, with FGF-1.
# [5] = test system: human prostate cancer PC-3 cells; experiment: Subcutaneous PC-3 prostate cancer cell implantation model in athymic mice; format: in vivo, athymic mice (Nu/Nu); details: 100 mg/kg daily i.p. for 15 days, vs carrier
# Procedure: 5×10^6 human prostate cancer PC-3 cells were subcutaneously injected in male athymic mice (Nu/Nu) of 6-8 weeks of age and weighing 20-26 g. Ten days after the implantation of the tumor cells, the mice were randomly split into two groups: one of them received a daily injection of potassium 2,5-diacetoxybenzene sulfonate (DABS) by intraperitoneal route at a dose of 100 mg/kg dissolved in saline (0.9% NaCl) whereas the other group received a daily injection of carrier (saline). The treatments were administered for 15 days. The volumes of the tumors induced by the implantation of PC-3 cells were measured through the skin on alternating days using a Vernier caliper. The volume was calculated using the formula […], where D is the larger diameter in mm, d is the smaller diameter in mm and V is the volume in mm^3. At the end of treatment, the mice were sacrificed and the tumors were weighed.
# [6] = test system: human prostate cancer PC-3 cells; experiment: Human tumor cell proliferation, XTT viability method; format: cell-based; details: 1-200 μM; 96 h
# Procedure: (§1) The cell lines used were the human prostate cancer PC-3 cells and human lung cancer A549 cells. 2000 cells were seeded per well in 96-well plates and they were allowed to adhere overnight. Then the cells were treated or not (controls) with potassium 2,5-diacetoxybenzene sulfonate (DABS) (1-200 μM) and they were allowed to proliferate for 96 h. After this time, the PC-3 and A549 cell proliferation was evaluated by determining the final number of cells by means of the viability method of yellow tetrazolium salt (XTT). The data were expressed as a percentage of the control (without treatment).
# [7] = test system: human lung cancer A549 cells; experiment: as above; format: cell-based; details: 1-200 μM; 96 h
# Procedure: as §1
# [8] = test system: subcutaneous gliomas (rat C6 glioma cells); experiment: Apoptosis in sections of subcutaneous gliomas (hematoxylin and eosin); format: in vivo, rats; details: 100 mg/kg/day i.p. for 10 days; vs carrier
# Description: Tumor cells elude the programmed cell death process or apoptosis that normal cells experience. Apoptosis induction in tumor cells is one way to confront the development of a tumor. To evaluate the effect of potassium 2,5-[…] sulfonate (DABS) on tumor cell apoptosis, 6).lm thick sections of the subcutaneous gliomas described in example 4 were made. The sections were stained with hematoxylin and eosin and observed at a magnification of 313 times using immersion oil. In these conditions, cell apoptosis is shown by the existence of apoptotic bodies appearing as strongly chromogenic granules in the cell nucleus which is frequently fragmented.
# [9] = test system: bFGF-induced fibrosis; experiment: bFGF-induced fibrosis around subcutaneously implanted gelatin sponges; format: in vivo, Sprague-Dawley rats; details: 100 μM in sponge with bFGF 10 μg/ml and heparin; subcutaneous; 7 days
# Procedure: Sterile gelatin sponges ([…]; Curaspon Dental, Clinimed Holding, Zwanenburg, The Netherlands) were subcutaneously implanted in the dorsal region of the neck in Sprague-Dawley rats after the induction of intraperitoneal anesthesia. The animals were split into two groups: group A, the sponges were moistened with 200 III of saline solution which contained 25 μg/ml of heparin and 10 μg/ml of basic FGF (bFGF); group B, the sponges were moistened in the same solution as in group A, but which solution further contained 2,5-dihydroxybenzoate (100 μM). After 7 days, the sponges and the surrounding subcutaneous fat were removed and histologically analyzed.
# T1 sequence (P05230 whole entry, species assumed): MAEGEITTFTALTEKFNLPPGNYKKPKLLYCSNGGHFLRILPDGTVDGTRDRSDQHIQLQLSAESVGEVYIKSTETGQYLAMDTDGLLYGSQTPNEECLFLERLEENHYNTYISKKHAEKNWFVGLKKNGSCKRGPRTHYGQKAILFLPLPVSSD
molecule,measurement,setting,value
calcium 2-acetoxy-5-hydroxybenzene sulfonate,mitogenesis induced by FGF-1,[1],inhibition of mitogenesis induced by FGF-1
"O=S(=O)([O-])c1cc(O)ccc1O.[K+] [DHBS, potassium 2,5-dihydroxybenzene sulfonate, reference compound]",mitogenesis induced by FGF-1,[1],inhibition of the mitogenesis induced by fibroblast growth factor-1
same,average size (volume) of the subcutaneous gliomas,"[2]; i.p. 100 mg/kg/day for 10 days, started on day 5 after implantation, vs carrier",less than that of the rats treated with carrier
"CC(=O)Oc1ccc(O)cc1S(=O)(=O)[O-].[K+] [2A-5HBS, potassium 2-acetoxy-5-hydroxybenzene sulfonate]","rat glioma cell proliferation (absorbance at 595 nm, % of control)",[3],caused the inhibition of rat glioma cell proliferation
same,binding site on FGF-1 in the co-crystal,[4],"occupy a site that is very close to the one that has been described occupied by 2,5-dihydroxybenzene sulfonic acid"
"CC(=O)Oc1ccc(OC(C)=O)c(S(=O)(=O)[O-])c1.[K+] [DABS, potassium 2,5-diacetoxybenzene sulfonate]",mitogenesis induced by FGF-1,[1],inhibition of mitogenesis induced by FGF-1
same,tumor growth (tumor volume measured through the skin),[5]; started 10 days after implantation,significantly reduced the human prostate cell tumor growth
same,weight of the extracted tumor when treatment ended,[5],significant reduction of the weight of the extracted tumor
same,"PC-3 cell proliferation (number of viable cells, % of control)",[6],significant inhibition
same,"A549 cell proliferation (number of viable cells, % of control)",[7],significant inhibition
same,probability of being tumor-free (χ2 test),"[2]; DABS group vs DHBS group, 100 mg/kg/day each",greater probability of being tumor-free
same,rats tumor-free when treatment ended,"[2]; i.p. 100 mg/kg/day for 10 days, all rats had established tumors before treatment",4 rats
same,binding site on FGF-1 in the co-crystal,[4],"occupy a site that is very close to the one that has been described occupied by 2,5-dihydroxybenzene sulfonic acid"
same,tumor cells in apoptosis in glioma sections,[8],a large number of tumor cells in apoptosis can be observed
"O=C([O-])c1cc(O)ccc1O.[K+] [2,5-dihydroxybenzoate, potassium 2,5-dihydroxybenzoate]",rat glioma C6 cell proliferation (absorbance at 595 nm),"[3]; 100, 200, 500 or 1000 μM",inhibited rat glioma C6 cell proliferation in a concentration-dependent manner
same,statistical significance of the inhibition of C6 cell proliferation,"[3]; at 500 and 1000 μM, vs control",statistically significant
same,bFGF-induced fibrosis (fibroblasts in septa of connective tissue of adipose tissue),[9],reduces bFGF-induced fibrosis
"CC(=O)Oc1ccc(O)c(S(=O)(=O)[O-])c1.[K+] [5A-2HBS, potassium 5-acetoxy-2-hydroxybenzene sulfonate]",mitogenesis induced by FGF-1,[1],inhibition of mitogenesis induced by FGF-1
same,"rat glioma cell proliferation (absorbance at 595 nm, % of control)",[3],caused the inhibition of rat glioma cell proliferation
same,binding site on FGF-1 in the co-crystal,[4],"occupy a site that is very close to the one that has been described occupied by 2,5-dihydroxybenzene sulfonic acid"
"O=C(O)C=Cc1cc(O)ccc1O [2,5-DHC, 3-(2,5-dihydroxyphenyl)-2-propenoic acid]",C6 cell proliferation,[3]; 50 µM,reduced the C6 cell proliferation to less than half
same,C6 cell proliferation,[3]; 100 μM,reduced to one tenth
